Data: patent US12465609B2, “Methods of treating patients suffering from a disease condition or disorder that is associated with an increased glutamate level” (veriNOS operations GmbH, priority 2022, dated 2025)

Tested on: patients with acute moderate and severe TBI
Assay: NOSTRA III phase III trial, clinical outcome (eGOS, therapy intensity level) in TBI patients
Assay type: in vivo, human
Details: for proportion of low TIL levels (3-10 points): patients of 18-39 years; for eGOS median at 6 months: placebo 5
Method: Based on the results of the earlier phase II study, the NOSTRA III (NO Synthase in TRAumatic Brain Injury) phase III trial was designed to detect clinically relevant differences in clinical outcome (Extended Glasgow Outcome Score at 6 months after injury) as primary endpoint. In addition, the extracellular intracerebral glutamate levels and lactate levels of these TBI patients were also determined in an exploratory approach to monitor the metabolic state of the patients.
Trials. 2020. A total of 224 evaluable patients with moderate and severe TBI were enrolled in 32 centres in Austria, France, Germany, Spain, and United Kingdom. The trial started on 24 Aug. 2016 with last-patient last-visit on 17 Jun. 2020.
Patients between 18 and 60 years of age with Glasgow Coma Score ≥3 requiring intracranial pressure (ICP) monitoring were enrolled. Other inclusion criteria were TBI within the last 18 hours but at least 6 hours after the injury, which were expected to survive more than 24 hours after admission.
The eGOS was determined by a face to face meeting by trained assessors.
The null-hypothesis of no shift across the 8 ordered categories of eGOS for the two treatment groups was tested after six months based on a proportional odds model stratified by age (18-39 years and 40-60 years). […] Treatment and age (18-39 years and 40-60 years) were included in the model. The proportional odds assumption was tested using a Chi-Square Score Test.
The main objective of the post hoc analyses was to estimate the effect size of VAS203 compared with placebo for the primary endpoint eGOS-I (eGOS-Interview) in the subgroups time to infusion ≤12 hours and >12 hours. Supportive analyses were conducted by age group (<40 years, ≥40 years) because age group was used as a stratification factor in the study. Comparability between treatment groups regarding demographics as well as severity and location of disease was investigated using similar methods as in the main CSR.
The proportions of patients per eGOS-I level at 3 months and at 6 months were calculated. For the change in eGOS-I over time, the proportion of patients with changes from 3 to 6 months were calculated by eGOS-I level, and in addition categorised as decreased (i.e. any decrease in eGOS-I level from 3 to 6 months), unchanged (i.e. no change in eGOS-I level from 3 to 6 months), and increased (i.e. any increase in eGOS-I level from 3 to 6 months).
Ordinal logistic regression was used for the analysis of eGOS-I at 3 months and at 6 months, including treatment group and age group (<40 years, ≥40 years) as factors in the model. Estimated odds ratios for the comparison of the VAS203 and placebo groups of >1 mean that eGOS-I was higher in the VAS203 group than in the placebo group across the 8 levels, whereas odds ratios of <1 mean that eGOS-I was lower in the VAS203 group than in the placebo group. Odds ratios together with their 95% CIs were used to estimate and assess the size of the treatment effect of VAS203 compared to placebo. Proportional […] were assumed as valid for all these analyses because ordinal logistic regression analysis is known to be robust against deviations from this assumption; also, the power of assumption checking would be low for small subgroups.
Based on the time-dependent activation of pathologic cascades during the early phase after TBI and the benefits observed with an infusion of VAS203 during the initial 12 hours after TBI in the Phase IIa trial [Stover], a post-hoc-analysis was performed to determine whether patients in whom VAS203 was infused ≤12 hours after TBI, show better clinical improvement compared to patients in whom infusion was started >12 hours after TBI.

Q: C[C@H](O)[C@H](O)C1CNc2nc(N)nc(N)c2N1 (mixture of isomers) [Ronopterin, 4-Amino-(6R,S)-5,6,7,8-tetrahydro-L-biopterin] was tested. Which “proportion of patients with Good Recovery” value (18-39 years, late infusion >12 hours, placebo 38%) did it give?
A: 30%

Q: What about the “proportion of patients with Good Recovery” value (40-60 years, late infusion >12 hours, placebo 19%) of the same compound?
A: 20%

Q: What about the “proportion of patients with Good Recovery” value (patients aged 18-39 years, early infusion ≤12 hours, placebo 32%) of the same compound?
A: 45%

Q: What about the “proportion of patients with Good Recovery” value (patients aged 40-60 years, early infusion, placebo 8%) of the same compound?
A: 27%

Q: And the “proportion of low TIL levels (3-10 points)” value (second week after TBI, placebo 64%, p=0.0002)?
A: 81%

Q: What about the “proportion of low TIL levels (3-10 points)” value (placebo 62%, p=0.01) of the same compound?
A: 71%

Q: And the “NNT for Good Recovery” value (time to infusion <12 hours)?
A: 8

Q: And the “increase of proportion of patients with a Good Recovery at 6 months compared to the Placebo group” value (time to infusion <12 hours)?
A: 61%

Q: What about the “proportion of patients with Good Recovery (eGOS 7 and 8)” value (time to infusion <12 hours, placebo 23%, ns) of the same compound?
A: 37%

Q: What about the “eGOS median at 6 months” value (time to infusion >12 hours) of the same compound?
A: 5

Q: And the “proportion of patients with Good Recovery at 6 months” value (time to infusion >12 hours, placebo 28%)?
A: 25%

Q: And the “eGOS median at 6 months” value (time to infusion ≤12 hours, not significant)?
A: 6

Q: What about the “overall eGOS-I rating at 6 months vs placebo (primary efficacy endpoint)” value (total dose 17 mg/kg infused for 48 hours, ordinal logistic regression) of the same compound?
A: No difference
